Patent US8883841B2, “Oncogenic ras-specific cytotoxic compound and methods of use thereof” (The Board of Regents of the University of Texas System, priority 2005, dated 2014)
Counter-ions that a name gives are not always drawn. Like-named read-outs stand apart in the source and are kept apart here.

Tests used:
T29 cells = experiment: cells; settings: Homo sapiens, T29, read-out: IC50 in T29 cells
T29Kt1 cells = experiment: cells; settings: Homo sapiens
H460 cells = experiment: cells; settings: Homo sapiens
H226B cells = experiment: Cell viability, H226B lung cancer cells; format: cell-based, human; settings: Homo sapiens, H226B, Lung, read-out: IC50 (−LogM) (converted)
A549 cells = experiment: Cell viability, A549 lung cancer cells; format: cell-based, human; settings: Homo sapiens; A549, Lung; read-out: IC50 (−LogM) (converted)
A549CK8 = experiment: Cell viability, A549CK8 lung cancer cells; format: cell-based, human; settings: Homo sapiens; A549CK8, Lung; read-out: IC50 (−LogM) (converted)
Hct116 = experiment: Cell viability, Hct116 colon cancer cells; format: cell-based, human; settings: Homo sapiens, HCT-116; Hct116, Colon; read-out: IC50 (−LogM) (converted)
CT116P53 = experiment: Cell viability, CT116P53 colon cancer cells; format: cell-based, human; settings: Homo sapiens; CT116P53, Colon; read-out: IC50 (−LogM) (converted)
HKE3 = experiment: Cell viability, HKE3 colon cancer cells; format: cell-based, human; settings: Homo sapiens, HKE3, Colon, read-out: IC50 (−LogM) (converted)
H322 cells = experiment: Cell viability, H322 lung cancer cells; format: cell-based, human; settings: Homo sapiens, NCI-H322; H322, Lung; read-out: IC50 (−LogM) (converted)
H1299 cells = experiment: Cell viability, H1299 lung cancer cells; format: cell-based, human; settings: Homo sapiens, NCI-H1299; h1299, Lung; read-out: IC50 (−LogM) (converted)
AsPC-1 = experiment: Cell viability, AsPC-1 pancreatic cancer cells; format: cell-based, human; settings: Homo sapiens; ASPC1, Pancrease; read-out: IC50 (−LogM) (converted)
DLD1 = experiment: Cell viability, DLD1 colon cancer cells; format: cell-based, human; settings: Homo sapiens, DLD-1; DLD1, Colon; read-out: IC50 (−LogM) (converted)
Heb46 = experiment: Cell viability, Heb46 kidney cells; format: cell-based
Heb44 = experiment: Cell viability, Heb44 kidney cells; format: cell-based
Capanc-1 = experiment: Cell viability, Capanc-1 pancreatic cancer cells; format: cell-based, human; settings: Homo sapiens, Pancreatic cancer cell; capanc1, Pancrease; read-out: IC50 (−LogM) (converted)
Sw620 = experiment: Cell viability, Sw620 colon cancer cells; format: cell-based, human; settings: Homo sapiens, SW-620; Sw620, Colon; read-out: IC50 (−LogM) (converted)
miapac = experiment: Cell viability, miapac pancreatic cancer cells; format: cell-based, human; settings: Homo sapiens, Pancreatic cancer cell; miapac, Pancrease; read-out: IC50 (−LogM) (converted)
H2122 = experiment: Cell viability, H2122 lung cancer cells; format: cell-based, human; settings: Homo sapiens, NCI-H2122; H2122, Lung; read-out: IC50 (−LogM) (converted)
H2009 = experiment: Cell viability, H2009 lung cancer cells; format: cell-based, human; settings: Homo sapiens, NCI-H2009; H2009, Lung; read-out: IC50 (−LogM) (converted)
H23 = experiment: Cell viability, H23 lung cancer cells; format: cell-based, human; settings: Homo sapiens, NCI-H23; H23, Lung; read-out: IC50 (−LogM) (converted)
H1933 = experiment: Cell viability, H1933 lung cancer cells; format: cell-based, human; settings: Homo sapiens; H1933, Lung; read-out: IC50 (−LogM) (converted)
H1395 = experiment: Cell viability, H1395 lung cancer cells; format: cell-based, human; settings: Homo sapiens, NCI-H1395; H1395, Lung; read-out: IC50 (−LogM) (converted)
H2087 = experiment: Cell viability, H2087 lung cancer cells; format: cell-based, human; settings: Homo sapiens, NCI-H2087; H2087, Lung; read-out: IC50 (−LogM) (converted)
Ovcar3 = experiment: Cell viability, Ovcar3 ovary cancer cells; format: cell-based; settings: Homo sapiens, OVCAR-3
Ovcar443 = experiment: Cell viability, Ovcar443 ovary cancer cells; format: cell-based
Hey = experiment: Cell viability, Hey ovary cancer cells; format: cell-based
Ovca429 = experiment: Cell viability, Ovca429 ovary cancer cells; format: cell-based
SKOV3 = experiment: Cell viability, SKOV3 ovary cancer cells; format: cell-based; settings: Homo sapiens, SK-OV-3
[1] = T29Kt1, read-out: IC50 in T29k cells, Table 1
[2] = NCI-H460, read-out: IC50 (−LogM), H460, Lung (converted)
[3] = NCI-H460, read-out: IC50 in H460 cells, Table 1

For `COc1ccc2c(c1)c(CCN)c(C)n2Cc1ccccc1` [Oncrasin K005, [2-(1-benzyl-5-methoxy-2-methyl-1H-indol-3-yl)ethyl]amine hydrochloride], the IC50 (T29 cells) was 15.8 µM, the IC50 (T29Kt1 cells; T29Kt1, read-out: IC50 in T29k cells) was 15.8 µM and the IC50 (H460 cells; NCI-H460, read-out: IC50 in H460 cells) was 6.31 µM.

`OCc1cn(Cc2ccccc2Cl)c2ccccc12` [Oncrasin K006, [1-(2-chlorobenzyl)-1H-indol-3-yl]methanol] gave an IC50 (H226B cells; first H226B line) of 0.00251 µM, an IC50 (H226B cells; second H226B line) of 0.0398 µM and an IC50 (A549 cells) of 12.6 µM. For the same compound, the IC50 (A549CK8) was 3.98 µM, the IC50 (Hct116) was 0.501 µM and the IC50 (CT116P53) was < 31.6 µM. The IC50 (HKE3; first HKE3 line) was 0.126 µM, the IC50 (HKE3; second HKE3 line) was 0.251 µM and the IC50 (H322 cells) was 31.6 µM. For the same compound, the IC50 (H1299 cells) was 10 µM, the IC50 (AsPC-1) was 3.98 µM and the IC50 (DLD1) was < 31.6 µM. The IC50 (Heb46) was 2 µM, the IC50 (Heb44) was 0.01 µM and the IC50 (Capanc-1) was 12.6 µM. The IC50 (Sw620) was 10 µM, the IC50 (miapac) was < 31.6 µM and the IC50 (H2122) was 3.98 µM. The IC50 (H2009) was 31.6 µM, the IC50 (H23) was 25.1 µM and the IC50 (H1933) was 15.8 µM. The IC50 (H1395) was 31.6 µM, the IC50 (H2087) was 25.1 µM and the IC50 (Ovcar3) was 0.631 µM. For the same compound, the IC50 (Ovcar443) was 7.94 µM, the IC50 (Hey) was 31.6 µM and the IC50 (Ovca429) was 10 µM. The IC50 (SKOV3) was 3.98 µM, the IC50 (T29Kt1 cells; [1]) was 2.51 µM and the IC50 (H460 cells; [2]) was 0.1 µM. It also gave an IC50 (H460 cells; [3]) of 0.1 µM.

In the case of `COC(=O)c1c(C)n(Cc2cccc3ccccc23)c2ccc(O)cc12` [Oncrasin K011, methyl 5-hydroxy-2-methyl-1-(1-naphthylmethyl)-1H-indole-3-carboxylate], the IC50 (T29 cells) is reported as 3.16 µM, the IC50 (T29Kt1 cells; [1]) is reported as 3.16 µM and the IC50 (H460 cells; [3]) is reported as 1.58 µM.

`CC(C)(C)OC(=O)C1=C(N)N(Cc2ccccc2)C2(C)C=CC(=O)C=C12` (centres unmarked) [Oncrasin K041, tert-butyl 2-amino-1-benzyl-7a-methyl-5-oxo-indole-3-carboxylate] gave an IC50 (T29 cells) of 5.01 µM and an IC50 (T29Kt1 cells; [1]) of 5.01 µM.

`OCc1cn(Cc2ccc(Cl)c(Cl)c2)c2ccccc12` [Oncrasin K049, [1-(3,4-dichlorobenzyl)-1H-indol-3-yl]methanol] showed an IC50 (H226B cells; first H226B line) of 0.00251 µM, an IC50 (H226B cells; second H226B line) of 0.00316 µM and an IC50 (A549 cells) of 10 µM. For the same compound, the IC50 (A549CK8) was 6.31 µM, the IC50 (Hct116) was 0.01 µM and the IC50 (CT116P53) was < 31.6 µM. For the same compound, the IC50 (HKE3; first HKE3 line) was 0.00251 µM, the IC50 (HKE3; second HKE3 line) was 0.00316 µM and the IC50 (H322 cells) was 10 µM. For the same compound, the IC50 (H1299 cells) was 10 µM, the IC50 (AsPC-1) was 10 µM and the IC50 (DLD1) was < 31.6 µM. The IC50 (Heb46) was 0.0316 µM, the IC50 (Heb44) was 0.01 µM and the IC50 (Capanc-1) was 12.6 µM. For the same compound, the IC50 (miapac) was < 31.6 µM, the IC50 (H2122) was 0.316 µM and the IC50 (H2009) was 10 µM. For the same compound, the IC50 (H23) was 15.8 µM, the IC50 (H1933) was 100 µM and the IC50 (H1395) was 15.8 µM. The IC50 (H2087) was 7.94 µM, the IC50 (Ovcar3) was 0.01 µM and the IC50 (Ovcar443) was 10 µM. It also gave an IC50 (Ovca429) of 7.94 µM, an IC50 (SKOV3) of 3.16 µM and an IC50 (T29Kt1 cells; [1]) of 0.316 µM. For the same compound, the IC50 (H460 cells; [2]) was 0.0316 µM and the IC50 (H460 cells; [3]) was 0.0316 µM.

`Cc1ccc(Cn2cc(C=O)c3ccccc32)cc1` [Oncrasin K66, 1H-Indole-3-carboxaldehyde, 1-[(4-methylphenyl)methyl]-] showed an IC50 (T29 cells) of 31.6 µM, an IC50 (T29Kt1 cells; [1]) of 3.98 µM and an IC50 (H460 cells; [3]) of 0.0631 µM.

`O=[N+]([O-])c1cccc(Cn2cc(CO)c3ccccc32)c1` [Oncrasin K69, 1H-Indole-3-methanol, 1-[(3-nitrophenyl)methyl]-] gave an IC50 (H226B cells; first H226B line) of 0.0316 µM, an IC50 (H226B cells; second H226B line) of 0.1 µM and an IC50 (A549CK8) of 1.26 µM. The IC50 (Hct116) was 0.316 µM, the IC50 (CT116P53) was < 31.6 µM and the IC50 (HKE3; first HKE3 line) was 0.0794 µM. For the same compound, the IC50 (HKE3; second HKE3 line) was 1 µM, the IC50 (AsPC-1) was 7.94 µM and the IC50 (DLD1) was < 31.6 µM. For the same compound, the IC50 (Heb46) was 0.316 µM, the IC50 (Heb44) was 0.0794 µM and the IC50 (Capanc-1) was 31.6 µM. For the same compound, the IC50 (Sw620) was 31.6 µM, the IC50 (miapac) was < 31.6 µM and the IC50 (H2122) was 2 µM. The IC50 (H2009) was < 31.6 µM, the IC50 (H1933) was < 31.6 µM and the IC50 (H1395) was < 31.6 µM. The IC50 (H2087) was 31.6 µM, the IC50 (Ovcar3) was 0.251 µM and the IC50 (Hey) was < 31.6 µM. For the same compound, the IC50 (Ovca429) was 31.6 µM, the IC50 (SKOV3) was 3.16 µM and the IC50 (T29Kt1 cells; [1]) was 0.398 µM. The IC50 (H460 cells; [2]) was 0.0398 µM and the IC50 (H460 cells; [3]) was 0.0398 µM.

In the case of `O=[N+]([O-])c1ccc(Cn2cc(CO)c3ccccc32)cc1` [Oncrasin K71, 1H-Indole-3-methanol, 1-[(4-nitrophenyl)methyl]-], the IC50 (H226B cells; first H226B line) is reported as 0.316 µM, the IC50 (H226B cells; second H226B line) is reported as 1.58 µM and the IC50 (A549CK8) is reported as 7.94 µM. For the same compound, the IC50 (Hct116) was 3.16 µM, the IC50 (CT116P53) was < 31.6 µM and the IC50 (HKE3; first HKE3 line) was 0.398 µM. It also gave an IC50 (HKE3; second HKE3 line) of 0.2 µM, an IC50 (H1299 cells) of 10 µM and an IC50 (AsPC-1) of 10 µM. For the same compound, the IC50 (DLD1) was < 31.6 µM, the IC50 (Heb46) was 3.98 µM and the IC50 (Heb44) was 0.158 µM. For the same compound, the IC50 (Capanc-1) was 0.126 µM, the IC50 (Sw620) was 31.6 µM and the IC50 (miapac) was < 31.6 µM. For the same compound, the IC50 (H2122) was 3.16 µM, the IC50 (H2009) was < 31.6 µM and the IC50 (H23) was 31.6 µM. For the same compound, the IC50 (H1933) was 31.6 µM, the IC50 (H1395) was < 31.6 µM and the IC50 (Ovcar3) was 2.51 µM. For the same compound, the IC50 (Hey) was 31.6 µM, the IC50 (T29Kt1 cells; [1]) was 0.158 µM and the IC50 (H460 cells; [2]) was 0.0794 µM. For the same compound, the IC50 (H460 cells; [3]) was 0.0794 µM.

`O=Cc1cn(Cc2cc(C(F)(F)F)cc(C(F)(F)F)c2)c2ccccc12` [Oncrasin K76] showed an IC50 (T29 cells) of 6.31 µM, an IC50 (T29Kt1 cells; [1]) of 3.98 µM and an IC50 (H460 cells; [3]) of 1.26 µM.

`OCn1cc(Cc2cc(C(F)(F)F)cc(C(F)(F)F)c2)c2ccccc21` [Oncrasin K77] gave an IC50 (T29 cells) of 6.31 µM, an IC50 (T29Kt1 cells; [1]) of 7.94 µM and an IC50 (H460 cells; [3]) of 7.94 µM.
